Source: ChEMBL document CHEMBL4673185 (RSC Med Chem, 2020)
Positions of bridges follow the written chain, without caps; N, C: chain ends. Non-standard residues stand in square brackets, D forms with d. Residues, ends and D or L forms follow the SMILES beside them. Gla = N[C@@H](CC(C(=O)O)C(=O)O)C(=O)O

How the values were obtained:
[1] = Half life in iv dosed Wistar rat serum measured after 2 to 20 mins by HPLC analysis; format: ADME, organism-based; settings: time 2-20 min
Insulin receptor = Insulin receptor (Homo sapiens, UniProt P06213); assay: Activation of human IR-B expressed in mouse NIH3T3 cells assessed as increase in Akt phosphorylation at Ser473 residue incubated for 30 mins by HTRF method; format: cell-based
[2] = molecular target: Neurotensin receptor type 1 (Rattus norvegicus, UniProt P20789); assay: Agonist activity at rat NTR1 expressed in CHO cells assessed as effect on [3H] phosphoinositide accumulation using neurotensin (1 to 13 residues) as substrate by radioactive assay; format: cell-based
[3] = Agonist activity at Zebra fish V2R expressed in African green monkey COS-1 cells assessed as increase in intracellular calcium response by FLIPR assay; format: cell-based; settings: Danio rerio
Vasopressin V1b receptor = molecular target: T1, Vasopressin V1b receptor (Homo sapiens, UniProt P47901); assay: Agonist activity at human V1bR expressed in African green monkey COS-1 cells assessed as increase in intracellular calcium response by FLIPR assay; format: functional, cell-based
T1 sequence (P47901 whole entry): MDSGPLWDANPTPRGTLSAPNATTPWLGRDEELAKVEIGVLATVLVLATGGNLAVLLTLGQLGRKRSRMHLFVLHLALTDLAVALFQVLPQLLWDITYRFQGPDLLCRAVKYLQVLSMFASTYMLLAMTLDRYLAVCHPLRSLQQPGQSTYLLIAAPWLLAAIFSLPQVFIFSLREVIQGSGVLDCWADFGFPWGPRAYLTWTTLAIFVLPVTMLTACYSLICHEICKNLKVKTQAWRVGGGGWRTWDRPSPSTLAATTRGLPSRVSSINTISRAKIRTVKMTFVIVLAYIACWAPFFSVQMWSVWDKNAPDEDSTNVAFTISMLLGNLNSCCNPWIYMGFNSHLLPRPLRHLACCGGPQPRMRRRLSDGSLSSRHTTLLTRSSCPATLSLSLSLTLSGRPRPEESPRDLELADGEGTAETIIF

[4] = Agonist activity at Zebra fish V1a1R expressed in African green monkey COS-1 cells assessed as increase in intracellular calcium response by FLIPR assay; format: cell-based; settings: Danio rerio
[5] = molecular target: Mas-related G-protein coupled receptor member X1 (Homo sapiens, UniProt Q96LB2); assay: Activation of human MrgprX1 expressed in BAM 8-22 activated-rat KNRK cells by fura2-AM dye based calcium imaging assay; format: cell-based
Sequence of Mas-related G-protein coupled receptor member X1 (Q96LB2 whole entry): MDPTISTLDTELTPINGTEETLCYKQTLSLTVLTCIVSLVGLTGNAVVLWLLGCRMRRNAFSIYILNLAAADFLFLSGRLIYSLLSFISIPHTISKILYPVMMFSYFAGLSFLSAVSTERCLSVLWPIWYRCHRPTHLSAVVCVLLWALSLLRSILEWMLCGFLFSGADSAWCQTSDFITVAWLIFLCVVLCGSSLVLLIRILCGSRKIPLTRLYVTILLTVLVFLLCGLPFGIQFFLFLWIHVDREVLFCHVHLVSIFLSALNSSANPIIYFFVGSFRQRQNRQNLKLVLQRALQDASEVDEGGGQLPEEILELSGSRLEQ

Sequence of Insulin receptor (P06213 28-758 limits assumed): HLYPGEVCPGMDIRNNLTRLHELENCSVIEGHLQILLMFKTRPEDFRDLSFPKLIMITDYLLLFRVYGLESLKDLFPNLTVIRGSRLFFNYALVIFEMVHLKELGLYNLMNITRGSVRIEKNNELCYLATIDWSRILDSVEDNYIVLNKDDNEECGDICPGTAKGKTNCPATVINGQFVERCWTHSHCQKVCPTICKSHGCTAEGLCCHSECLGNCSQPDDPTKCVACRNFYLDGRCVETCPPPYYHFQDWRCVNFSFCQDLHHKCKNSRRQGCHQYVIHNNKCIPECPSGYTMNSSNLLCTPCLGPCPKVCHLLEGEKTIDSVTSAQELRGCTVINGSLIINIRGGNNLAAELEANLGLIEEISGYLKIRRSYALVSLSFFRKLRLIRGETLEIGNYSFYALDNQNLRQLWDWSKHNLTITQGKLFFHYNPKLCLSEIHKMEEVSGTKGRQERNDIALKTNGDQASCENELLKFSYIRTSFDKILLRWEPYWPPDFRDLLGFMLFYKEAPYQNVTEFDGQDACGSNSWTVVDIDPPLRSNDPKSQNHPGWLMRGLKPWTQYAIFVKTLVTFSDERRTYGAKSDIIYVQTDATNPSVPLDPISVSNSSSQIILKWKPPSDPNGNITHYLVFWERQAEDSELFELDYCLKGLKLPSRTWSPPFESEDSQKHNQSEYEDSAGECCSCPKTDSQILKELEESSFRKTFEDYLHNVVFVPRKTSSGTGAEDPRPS
Sequence of Insulin receptor (P06213 763-1382 limits assumed): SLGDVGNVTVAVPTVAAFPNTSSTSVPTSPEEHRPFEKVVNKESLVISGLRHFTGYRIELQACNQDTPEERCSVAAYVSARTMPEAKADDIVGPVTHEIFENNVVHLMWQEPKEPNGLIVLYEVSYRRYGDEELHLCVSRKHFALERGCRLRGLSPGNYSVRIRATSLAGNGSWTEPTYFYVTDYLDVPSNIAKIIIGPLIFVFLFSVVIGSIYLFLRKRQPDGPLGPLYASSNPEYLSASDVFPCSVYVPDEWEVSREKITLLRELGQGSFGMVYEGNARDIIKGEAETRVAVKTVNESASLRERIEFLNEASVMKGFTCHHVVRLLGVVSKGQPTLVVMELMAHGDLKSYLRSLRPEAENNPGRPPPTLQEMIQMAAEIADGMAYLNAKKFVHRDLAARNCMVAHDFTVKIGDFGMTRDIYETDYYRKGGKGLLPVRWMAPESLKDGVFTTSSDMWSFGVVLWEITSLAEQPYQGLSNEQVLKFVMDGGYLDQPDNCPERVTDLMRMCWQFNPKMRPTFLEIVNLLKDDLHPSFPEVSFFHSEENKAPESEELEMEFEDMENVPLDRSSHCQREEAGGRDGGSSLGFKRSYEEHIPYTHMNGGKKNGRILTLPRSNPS
Sequence of Neurotensin receptor type 1 (P20789 whole entry, the tested form may be a part): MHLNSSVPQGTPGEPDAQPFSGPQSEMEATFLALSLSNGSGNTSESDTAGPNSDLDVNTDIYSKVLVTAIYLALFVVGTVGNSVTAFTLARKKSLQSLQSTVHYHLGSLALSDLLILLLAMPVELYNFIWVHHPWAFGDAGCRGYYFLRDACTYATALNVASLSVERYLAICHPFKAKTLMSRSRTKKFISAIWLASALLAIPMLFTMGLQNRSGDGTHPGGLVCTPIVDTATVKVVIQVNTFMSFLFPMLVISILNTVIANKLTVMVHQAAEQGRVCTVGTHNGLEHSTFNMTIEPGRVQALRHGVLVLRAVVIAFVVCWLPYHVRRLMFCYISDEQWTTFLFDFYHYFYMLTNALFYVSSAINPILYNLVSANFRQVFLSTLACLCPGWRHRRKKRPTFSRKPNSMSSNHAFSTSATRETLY

## CC[C@H](C)[C@H](NC(=O)[C@H](Cc1ccccc1)NC(=O)[C@H](CCC(=O)O)NC(=O)[C@H](CCCCN)NC(=O)[C@H](C)NC(=O)[C@H](C)NC(=O)[C@H](CCC(N)=O)NC(=O)CNC(=O)[C@H](CCC(=O)O)NC(=O)[C@H](CC(C)C)NC(=O)[C@H](Cc1ccc(O)cc1)NC(=O)[C@H](CO)NC(=O)[C@H](CO)NC(=O)[C@@H](NC(=O)[C@H](CC(=O)O)NC(=O)[C@H](CO)NC(=O)[C@@H](NC(=O)[C@H](Cc1ccccc1)NC(=O)[C@@H](NC(=O)CNC(=O)[C@H](CCC(=O)O)NC(=O)[C@H](C)NC(=O)[C@@H](N)Cc1cnc[nH]1)[C@@H](C)O)[C@@H](C)O)C(C)C)C(=O)N[C@@H](C)C(=O)N[C@@H](Cc1c[nH]c2ccccc12)C(=O)N[C@@H](CC(C)C)C(=O)N[C@H](C(=O)N[C@@H](CCCCN)C(=O)NCC(=O)N[C@@H](CCCNC(=N)N)C(=O)O)C(C)C
[1]
  half-life: 2 min

## CC[C@H](C)[C@H](NC(=O)[C@H](CC(C)C)NC(=O)[C@@H](Cc1ccc(O)cc1)NC(=O)[C@H](CCC(N)=O)NC(=O)[C@H](CC(N)=O)NC(=O)[C@H](Cc1ccc(O)cc1)NC(=O)[C@H](CCC(N)=O)NC(=O)[C@H](CC(C)C)NC(=O)[C@@H](Cc1ccc(O)cc1)NC(=O)[C@@H](Cc1ccc(O)cc1)NC(=O)[C@H](CCC(=O)O)NC(=O)CN)C(=O)N[C@@H](CCCNC(=N)N)C(=O)N[C@H](Cc1ccc(O)cc1)C(=O)N[C@@H](CCCCN)C(=O)N[C@@H](CO)C(=O)N[C@@H](CC(N)=O)C(N)=O
Insulin receptor
  EC50: 12 nM

## CC[C@H](C)[C@@H]1NC(=O)[C@H](Cc2ccc(O)cc2)NC(=O)[C@H](CO)NC(=O)[C@H](CC(N)=O)NC(=O)[C@@H]2CCCN2C(=O)[C@H]([C@@H](C)CC)NC(=O)[C@H](CC(C(=O)O)C(=O)O)NC(=O)[C@H](CO)NC(=O)CNC(=O)[C@@H]2CSSC[C@@H]3NC(=O)[C@@H](NC(=O)[C@H](Cc4cnc[nH]4)NC(=O)[C@H](CC(C(=O)O)C(=O)O)NC(=O)[C@@H](NC(=O)[C@@H](NC(=O)CN)C(C)C)C(C)C)CSSC[C@H](NC(=O)[C@@H]4CCCN4C(=O)[C@H](CCCNC(=N)N)NC(=O)[C@H](Cc4cnc[nH]4)NC3=O)C(=O)N[C@@H](CO)C(=O)N[C@@H](CC(N)=O)C(=O)N[C@@H](C)C(=O)N[C@@H](CCC(=O)O)C(=O)N[C@@H](Cc3ccccc3)C(=O)N[C@@H](CCCCN)C(=O)N[C@@H](CCCCN)C(=O)N[C@@H](Cc3ccccc3)C(=O)N[C@@H](CSSC[C@H](C(=O)N[C@@H](Cc3ccccc3)C(=O)O)NC(=O)[C@H](CC(C)C)NC(=O)[C@H](CC(=O)O)NC1=O)C(=O)N[C@@H](CC(N)=O)C(=O)N[C@@H](CO)C(=O)N[C@@H](CC(=O)O)C(=O)N[C@@H]([C@@H](C)O)C(=O)N1CC(O)C[C@H]1C(=O)N[C@@H](CCCCN)C(=O)N[C@@H](Cc1ccc(O)cc1)C(=O)N[C@@H](CCCNC(=N)N)C(=O)N2 (some centres undefined)
Insulin receptor
  EC50: 12 nM

## CC[C@H](C)[C@@H]1NC(=O)[C@H](CC(=O)O)NC(=O)[C@H](CO)NC(=O)CNC(=O)[C@@H]2CSSC[C@@H]3NC(=O)[C@@H](NC(=O)[C@H](Cc4cnc[nH]4)NC(=O)[C@H](CC(C(=O)O)C(=O)O)NC(=O)[C@@H](NC(=O)[C@@H](NC(=O)CN)C(C)C)C(C)C)CSSC[C@H](NC(=O)[C@@H]4CCCN4C(=O)[C@H](CCCNC(=N)N)NC(=O)[C@H](Cc4cnc[nH]4)NC3=O)C(=O)N[C@@H](CO)C(=O)N[C@@H](CC(N)=O)C(=O)N[C@@H](C)C(=O)N[C@@H](CCC(=O)O)C(=O)N[C@@H](Cc3ccccc3)C(=O)N[C@@H](CCCCN)C(=O)N[C@@H](CCCCN)C(=O)N[C@@H](Cc3ccccc3)C(=O)N[C@@H](CSSC[C@H](C(=O)N[C@@H](Cc3ccccc3)C(=O)O)NC(=O)[C@H](CC(C)C)NC(=O)[C@H](CC(=O)O)NC(=O)[C@H](CCSC)NC(=O)[C@H](Cc3ccc(O)cc3)NC(=O)[C@H](CO)NC(=O)[C@H](CC(N)=O)NC(=O)[C@@H]3CCCN3C1=O)C(=O)N[C@@H](CC(N)=O)C(=O)N[C@@H](CO)C(=O)N[C@@H](CC(=O)O)C(=O)N[C@@H]([C@@H](C)O)C(=O)N1CC(O)C[C@H]1C(=O)N[C@@H](CCCCN)C(=O)N[C@@H](Cc1ccc(O)cc1)C(=O)N[C@@H](CCCNC(=N)N)C(=O)N2 (some centres undefined)
Insulin receptor
  EC50: 12 nM

## CC[C@H](C)[C@H](NC(=O)[C@H](CC(C)C)NC(=O)[C@@H](Cc1ccc(O)cc1)NC(=O)[C@H](CCC(N)=O)NC(=O)[C@H](CC(N)=O)NC(=O)[C@H](Cc1ccc(O)cc1)NC(=O)[C@H](CCC(N)=O)NC(=O)[C@H](CC(C)C)NC(=O)[C@@H](Cc1ccc(O)cc1)NC(=O)[C@@H](Cc1ccc(O)cc1)NC(=O)[C@H](CCC(=O)O)NC(=O)CN)C(=O)N[C@@H](CCCNC(=N)N)C(=O)N[C@H](Cc1ccc(O)cc1)C(=O)N[C@@H](CCCCN)C(=O)N[C@@H](CO)C(=O)N[C@@H](CC(N)=O)C(=O)O
[2]
  EC50: 20 nM

## CC(C)C[C@H](NC(=O)[C@H](Cc1ccccc1)NC(=O)[C@@H](N)CS)C(=O)NCC(=O)N[C@@H](CC(N)=O)C(=O)N[C@@H](CS)C(=O)N1CCC[C@H]1C(=O)N[C@@H](CC(=O)O)C(=O)N[C@@H](CO)C(N)=O (H-CFLGNCPDS-NH2)
[3]
  EC50: 1000 nM

## CC(C)C[C@H](NC(=O)[C@H](Cc1ccccc1)NC(=O)[C@@H](N)CS)C(=O)NCC(=O)N[C@@H](CC(N)=O)C(=O)N[C@@H](CS)C(=O)N1CCC[C@H]1C(=O)N[C@@H](CC(=O)O)C(=O)N[C@@H](CO)C(=O)O (H-CFLGNCPDS-OH)
[3]
  EC50: 1000 nM

## NC(=O)C[C@H](NC(=O)CNC(=O)[C@@H]1CCCN1C(=O)[C@H](Cc1ccccc1)NC(=O)[C@@H](N)CS)C(=O)N[C@@H](CS)C(=O)N1CCC[C@H]1C(=O)N[C@@H](CC(=O)O)C(=O)N[C@@H](CO)C(N)=O (H-CFPGNCPDS-NH2)
Vasopressin V1b receptor
  EC50: 1000 nM
[4]
  EC50: 1000 nM

## H-AWSGPRNRFVRF-OH
[5]
  EC50: 1800 nM

## H-GIV[Gla]DCCYNDCTDEKLKEYCHTLQSDSGTTLVRRRLCGS[Gla]LVTYLGELCLGN-OH (disulfide 6-11, 7-37, 20-49)
Insulin receptor
  EC50: 12 nM

## H-GVV[Gla]HCCKRACSNA[Gla]FMQFCNSDTPWNRCGSQITDSYR[Gla]LCPH-OH (disulfide 6-11, 7-29, 20-41)
Insulin receptor
  EC50: 12 nM

## H-HSGFLLAWSGPRNRFVRF-OH
[5]
  EC50: 1800 nM

## H-HSGILLAWSGPRNRFVRI-OH
[5]
  EC50: 500 nM
